According to patent publication US20090143400A1, “PURINE DERIVATIVES HAVING IMMUNO-MODULATING PROPERTIES” (priority 2005, published 2009):
≈ marks a conversion by molar mass, not a printed value.

Experiments:
[1] = tested on: rat spleen cells; type: cell-based
[2] = molecular target: T1, human TLR7 (Homo sapiens, UniProt Q9NYK1); assay: Human TLR7 assay (HEK293 SEAP reporter); type: cell-based; conditions: minimal effective concentration to induce SEAP release; HEK293 with recombinant human TLR7, overnight incubation at 37° C., 0.1% DMSO
T1 construct: expressed in transfected cells; host or cells: HEK293 cell line stably expressing the pNiFty2-SEAP reporter plasmid
T1 sequence (Q9NYK1 27-1049): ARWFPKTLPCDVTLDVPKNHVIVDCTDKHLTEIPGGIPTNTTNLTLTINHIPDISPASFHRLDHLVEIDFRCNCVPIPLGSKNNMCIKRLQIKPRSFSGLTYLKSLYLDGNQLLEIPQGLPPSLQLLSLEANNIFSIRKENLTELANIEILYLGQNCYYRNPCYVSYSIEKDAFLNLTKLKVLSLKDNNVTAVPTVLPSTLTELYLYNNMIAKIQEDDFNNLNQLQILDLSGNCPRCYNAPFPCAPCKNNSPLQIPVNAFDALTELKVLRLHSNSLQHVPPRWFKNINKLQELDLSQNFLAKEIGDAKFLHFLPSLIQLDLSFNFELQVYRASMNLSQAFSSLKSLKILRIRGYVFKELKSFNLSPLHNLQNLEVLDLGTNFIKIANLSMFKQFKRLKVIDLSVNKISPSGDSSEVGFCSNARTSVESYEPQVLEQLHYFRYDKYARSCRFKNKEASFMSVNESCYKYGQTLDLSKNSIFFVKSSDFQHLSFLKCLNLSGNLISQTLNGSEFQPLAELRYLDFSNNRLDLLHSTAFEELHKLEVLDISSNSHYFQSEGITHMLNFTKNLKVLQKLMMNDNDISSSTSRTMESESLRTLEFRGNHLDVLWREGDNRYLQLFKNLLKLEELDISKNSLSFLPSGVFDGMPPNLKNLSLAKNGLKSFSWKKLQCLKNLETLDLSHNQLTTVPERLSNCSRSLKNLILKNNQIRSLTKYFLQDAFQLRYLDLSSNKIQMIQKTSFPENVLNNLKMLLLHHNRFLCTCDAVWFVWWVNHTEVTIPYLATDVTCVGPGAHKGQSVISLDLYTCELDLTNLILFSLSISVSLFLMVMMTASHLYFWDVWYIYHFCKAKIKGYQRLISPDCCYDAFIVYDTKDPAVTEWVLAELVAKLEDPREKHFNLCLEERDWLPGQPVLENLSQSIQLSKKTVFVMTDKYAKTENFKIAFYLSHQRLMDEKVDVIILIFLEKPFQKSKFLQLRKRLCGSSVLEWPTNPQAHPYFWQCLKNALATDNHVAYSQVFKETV
Description: Recombinant human TLR7 was stably expressed in a HEK293 cell line already stably expressing the pNiFty2-SEAP reporter plasmid; integration of the reporter gene was maintained by selection with the antibiotic zeocin. The most common variant sequence of human TLR7 (represented by the EMBL sequence AF240467) was cloned into the mammalian cell expression vector pUNO and transfected into this reporter cell-line. Transfectants with stable expression were selected using the antibiotic blasticidin. In this reporter cell-line, expression of secreted alkaline phosphatase (SEAP) is controlled by an NFkB/ELAM-1 composite promoter comprising five NFkB sites combined with the proximal ELAM-1 promoter. TLR signaling leads to the translocation of NFkB and activation of the promoter results in expression of the SEAP gene. TLR7-specific activation was assessed by determining the level of SEAP produced following overnight incubation of the cells at 37° C. with the standard compound in the presence of 0.1% (v/v) dimethylsulfoxide (DMSO). Concentration dependent induction of SEAP production by compounds was expressed as the minimal effective concentration of compound to induce SEAP release (pMEC).

[3] = Solubility testing; type: physicochemical; conditions: aqueous buffer, thermodynamic from solid; 0.1 M phosphate buffer, shaken overnight at 20° C., HPLC/UV; Examples of the invention
Procedure: Saturated solutions for determining the solubility were prepared by placing about 0.3-3.0 ml of 0.1 M phosphare buffer in glass screw-top sample tubes along with some of the test compound. The tubes were then shaken overnight at constant temperature (20° C.). After shaking, undissolved material should be present in the solution, and more test compound should be added and shaking continued if this is not the case. The samples were then transferred to a centrifuge tube and centrifuged using a Heraeus Biofuge Fresco centrifuge at 13000 rpm for 30 minutes. The supernatant was then removed, placed in a new centrifuge tube and centrifuged again for 30 minutes at 13000 rpm. The undissolved material formed a pellet at the bottom of the tube and the liquid above the pellet was removed and was ready for assaying. The solution was then analysed using HPLC with UV quantification. A standard was also prepared by accurately weighing a sample of the test compound and dissolving it in a suitable volume of a solvent that will dissolve it completely (typically, DMSO, ethanol or methanol). This sample was then analysed by HPLC/UV.
The solubility was calculated from the observed peak areas in the HPLC/UV chromatograms along with corrections for any dilutions of the sample and differences in injection volumes. The following equation was used: […]

Structure (SMILES)	Log MEC [1]	pMEC [2]	solubility [3]
CCCCOc1nc(N)c2[nH]c(=O)n(CCCN(CCCN3CCCC3)Cc3cccc(CC(=O)OC)c3)c2n1 [Example 2, Methyl (3-{[[3-(6-amino-2-butoxy-8-oxo-7,8-dihydro-9H-purin-9-yl)propyl](3-pyrrolidin-1-ylpropyl)amino]methyl}phenyl)acetate]	9.5	7.4	1940 µg/mL (≈ 3500 µM)
CCCCOc1nc(N)c2[nH]c(=O)n(CCCN(CCCN3CCN(C)CC3)Cc3cccc(CC(=O)OC)c3)c2n1 [Example 3, Methyl [3-({[3-(6-amino-2-butoxy-8-oxo-7,8-dihydro-9H-purin-9-yl)propyl][3-(4-methylpiperazin-1-yl)propyl]amino}methyl)phenyl]acetate]	9.5	7.7	850 µg/mL (≈ 1460 µM)
CCCCOc1nc(N)c2[nH]c(=O)n(CCCN(CCN(C)C)Cc3cccc(CC(=O)OC)c3)c2n1 [Example 4, Methyl [3-({[3-(6-amino-2-butoxy-8-oxo-7,8-dihydro-9H-purin-9-yl)propyl][2-(dimethylamino)ethyl]amino}methyl)phenyl]acetate]	9.5	–	830 µg/mL (≈ 1620 µM)
CCCCOc1nc(N)c2[nH]c(=O)n(CCCN(CCCN(C)C)Cc3cccc(CC(=O)OC)c3)c2n1 [Example 1, Methyl [3-({[3-(6-amino-2-butoxy-8-oxo-7,8-dihydro-9H-purin-9-yl)propyl][3-(dimethylamino)propyl]amino}methyl)phenyl]acetate]	9.5	–	980 µg/mL (≈ 1860 µM)
CCCCOc1nc(N)c2[nH]c(=O)n(CCCN(CCCNC)Cc3cccc(CC(=O)OC)c3)c2n1 [Example 5, Methyl [3-({[3-(6-amino-2-butoxy-8-oxo-7,8-dihydro-9H-purin-9-yl)propyl][3-(methylamino)propyl]amino}methyl)phenyl]acetate]	9.5	7.2	1820 µg/mL (≈ 3540 µM)
CCCCOc1nc(N)c2[nH]c(=O)n(CCCCN(CCCN3CCN(C)CC3)Cc3cccc(CC(=O)OC)c3)c2n1 [Example 6, Methyl [3-({[4-(6-amino-2-butoxy-8-oxo-7,8-dihydro-9H-purin-9-yl)butyl][3-(4-methylpiperazin-1-yl)propyl]amino}methyl)phenyl]acetate]	9.0	–	1210 µg/mL (≈ 2030 µM)
